Reference: US12285012B2, “Compositions comprising pyridine carboxylate herbicides with acetolactate synthase (ALS) inhibitor herbicides” (Corteva Agriscience LLC, priority 2018, dated 2025)

Legend:
[1] = tested on: kochia (KCHSC, Kochia scoparia); test: Greenhouse postemergence herbicidal effect; format: in vivo
Method: (§1) Seeds of the desired test plant species were planted in a 90:10% v/v (volume/volume) mixture of PRO-MIX® BX (Premier Tech Horticulture, Quakertown, PA, USA) and PROFILE® GREENS GRADE™ (Profile Products LLC, Buffalo Grove, IL, USA) planting mixture, which typically has a pH of 5.2 to 6.2 and an organic matter content of at least 50 percent, in plastic pots with a surface area of 103.2 square centimeters (cm^2). […] The plants were grown for 7-36 days (d) in a greenhouse with an approximate 14-hour (h) photo-period which was maintained at about 23° C. during the day and 22° C. during the night. Nutrients and water were added on a regular basis and supplemental lighting was provided with overhead metal halide 1000-Watt lamps as necessary. The plants were employed for testing when they reached the second or third true leaf stage.
(§2) Emulsifiable concentrates of each of each pyridine carboxylate herbicide (Compound A or Compound B) were prepared at 100 grams acid equivalent per liter (g ae/L). The emulsifiable concentrates also included a safener, cloquintocet-mexyl, at 120 grams active ingredient per liter (g ai/L), unless otherwise noted below. An aliquot of each emulsifiable concentrate was placed in a 25 mL glass vial and diluted with an aqueous mixture of 1.25% (v/v) ACTIROB® B esterified rapeseed oil (Bayer Crop Science, Research Triangle Park, NC, USA) or MSO® Concentrate with LECI-TECH® methylated soybean oil (Loveland Products, Loveland, CO, USA) to obtain concentrated stock solutions at the highest application rate for each herbicide, based upon a 12 milliliter (mL) application volume at a rate of 187 liters per hectare (L/ha). The concentrated stock solutions were further diluted with an aqueous mixture of 1.25% v/v ACTIROB® B or MSO® Concentrate with LECI-TECH® to obtain stock solutions at reduced application rates for each herbicide. Spray solutions of the herbicide combinations (Compound A or Compound B plus ALS herbicide) were prepared by adding weighed amounts or aliquots of the ALS herbicides to the stock solutions of Compound A or Compound B to form 12-mL spray solutions in two- or three-way combinations.
(§3) The spray solutions were applied to the plant material with an overhead Mandel track sprayer equipped with 8002E nozzles calibrated to deliver 187 L/ha over an application area of 0.503 square meters (m^2) at a spray height of 18 inches (43 centimeters (cm)) above the average plant canopy. Control plants were sprayed in the same manner with the solvent blank. All pyridine carboxylate herbicide (component a) application rates are given as “g ae/ha” and all ALS inhibitor (component b) application rates are given as “g ai/ha.”
(§4) The treated plants and control plants were placed in a greenhouse as described above and watered by sub-irrigation to prevent wash-off of the test compounds. After 20-22 d, the condition of the test plants as compared with that of the control plants was determined visually and scored on a scale of 0 to 100 percent where 0 corresponds to no injury and 100 corresponds to complete kill.

[2] = tested on: common lambsquarters (CHEAL, Chenopodium album L.); test: Greenhouse postemergence herbicidal effect; format: in vivo
Method: as §1, §2, §3, §4

spring barley (HORVS) = format: in vivo, Hordeum vulgare
Method: (§5) The plants were grown for 7-36 days (d) in a greenhouse with an approximate 14-hour (h) photo-period which was maintained at about 23° C. during the day and 22° C. during the night. Nutrients and water were added on a regular basis and supplemental lighting was provided with overhead metal halide 1000-Watt lamps as necessary. The plants were employed for testing when they reached the second or third true leaf stage.
(§6) The emulsifiable concentrates also included a safener, cloquintocet-mexyl, at 120 grams active ingredient per liter (g ai/L), unless otherwise noted below.
(§7) Control plants were sprayed in the same manner with the solvent blank. All pyridine carboxylate herbicide (component a) application rates are given as “g ae/ha” and all ALS inhibitor (component b) application rates are given as “g ai/ha.”
as §4

[3] = tested on: winter rape (BRSNW, Brassica napus); test: Greenhouse postemergence herbicidal effect; format: in vivo
Method: as §5, §6, §7, §4

[4] = tested on: wild buckwheat (POLCO, Polygonum convolvulus); test: Greenhouse postemergence herbicidal effect; format: in vivo; settings: for % visual injury, Obs / Obs % visual injury: POLCO
Method: as §5, §6, §7, §4

[5] = tested on: pigweed (AMARE, Amaranthus retroflexus); test: Greenhouse postemergence herbicidal effect; format: in vivo
Method: as §5, §6, §7, §4

[6] = tested on: wild chamomile (MATCH, Matricaria chamomilla); test: Greenhouse postemergence herbicidal effect; format: in vivo
Method: as §5, §6, §7, §4

[7] = tested on: wild mustard (SINAR, Sinapis arvensis); test: Greenhouse postemergence herbicidal effect; format: in vivo
Method: as §5, §6, §7, §4

[8] = tested on: Canadian thistle (CIRAR, Cirsium arvense); test: Greenhouse postemergence herbicidal effect; format: in vivo
Method: as §5, §6, §7, §4

spring wheat (TRZAS) = format: in vivo, Triticum aestivum
Method: as §5, §6, §7, §4

[9] = tested on: Russian thistle (SASKR, Salsola kali); test: Greenhouse postemergence herbicidal effect; format: in vivo
Method: as §5, §6, §7, §4

Compound: COc1cc(OC)nc(Oc2cccc(Oc3nc(OC)cc(OC)n3)c2C(=O)O)n1 [Bispyrabac]
- % visual injury Obs ([1]; Bispyrabac 20 g/ha): 10%
- % visual injury Obs ([2]; Bispyrabac 20 g/ha): 0%
- % visual injury Obs (spring barley (HORVS); Bispyrabac 20 g/ha): 13%
- % visual injury Obs ([3]; Bispyrabac 20 g/ha): 100%
- % visual injury Obs ([4]; Bispyrabac 20 g/ha): 96%
- % visual injury Obs ([5]; Bispyrabac 20 g/ha): 100%
- % visual injury Obs ([6]; Bispyrabac 20 g/ha): 23%
- % visual injury Obs ([7]; Bispyrabac 20 g/ha): 96%
- % visual injury Obs ([8]; Bispyrabac 20 g/ha): 68%
- % visual injury Obs (spring wheat (TRZAS); Bispyrabac 20 g/ha): 0%

Compound: COc1nn(C(=O)NS(=O)(=O)c2ccccc2OC(F)(F)F)c(=O)n1C [Flucarbazone, flucarbazone]
- pest or weed control at 30 g/ha ([1]; Bassia scoparia, post-emergence, KCHSC, Flurcarbazone 30 g/ha, read-out: % visual injury, Obs): 25%
- % visual injury, Obs ([2]; CHEAL, Flurcarbazone 30 g/ha): 10%
- % visual injury, Obs ([3]; BRSNW, Flurcarbazone 30 g/ha): 83%
- % visual injury, Obs ([4]; Flurcarbazone 30 g/ha): 88%
- % visual injury, Obs ([5]; AMARE, Flurcarbazone 30 g/ha): 98%
- % visual injury, Obs ([6]; MATCH, Flurcarbazone 30 g/ha): 18%
- % visual injury, Obs ([7]; SINAR, Flurcarbazone 30 g/ha): 88%
- pest or weed control at 30 g/ha ([8]; Cirsium arvense, post-emergence, CIRAR, Flurcarbazone 30 g/ha, read-out: % visual injury, Obs): 28%

Compound: Cc1ccn2nc(S(=O)(=O)Nc3c(F)cccc3F)nc2n1 [Flumetsulam, flumetsulam]
- % visual injury Obs ([1]; Flumetsulam 4.375 g/ha): 5%
- % visual injury Obs ([2]; Flumetsulam 4.375 g/ha): 45%
- % visual injury Obs ([3]; Flumetsulam 4.375 g/ha): 40%
- % visual injury Obs ([4]; Flumetsulam 4.375 g/ha): 5%
- % visual injury Obs ([5]; Flumetsulam 4.375 g/ha): 98%
- % visual injury Obs ([6]; Flumetsulam 4.375 g/ha): 83%
- % visual injury Obs ([9]; Flumetsulam 4.375 g/ha): 0%
- % visual injury Obs ([7]; Flumetsulam 4.375 g/ha): 50%
- % visual injury Obs ([8]; Flumetsulam 4.375 g/ha): 5%

Compound: Cc1cnc(C2=NC(C)(C(C)C)C(=O)N2)c(C(=O)O)c1 (centres unmarked) [Imazapic, imazapic]
- Obs % visual injury ([1]; KCHSC, Imazapic 35 g/ha): 80%
- Obs % visual injury ([2]; CHEAL, Imazapic 35 g/ha): 78%
- Obs % visual injury ([3]; BRSNW, Imazapic 35 g/ha): 98%
- Obs % visual injury ([4]; Imazapic 35 g/ha): 63%
- Obs % visual injury ([5]; AMARE, Imazapic 35 g/ha): 100%
- Obs % visual injury ([6]; MATCH, Imazapic 35 g/ha): 68%
- Obs % visual injury ([9]; SASKR, Imazapic 35 g/ha): 35%
- Obs % visual injury ([7]; SINAR, Imazapic 35 g/ha): 91%
- Obs % visual injury ([8]; CIRAR, Imazapic 35 g/ha): 68%

Compound: CCc1cnc(C2=NC(C)(C(C)C)C(=O)N2)c(C(=O)O)c1 (centres unmarked) [Imazethapyr, imazethapyr]
- pest or weed control at 35 g/ha ([1]; Bassia scoparia, post-emergence, 35 g/ha, read-out: % visual injury, Obs): 53%
- % visual injury, Obs ([2]; 35 g/ha): 28%
- % visual injury, Obs ([6]; 35 g/ha): 18%
- % visual injury, Obs ([9]; 35 g/ha): 40%
- pest or weed control at 35 g/ha ([8]; Cirsium arvense, post-emergence, 35 g/ha, read-out: % visual injury, Obs): 40%

Compound: COc1nc(C)nc(NC(=O)NS(=O)(=O)c2ccccc2C(=O)O)n1 [Metsulfuron, metsulfuron]
- % visual injury, Obs ([1]; KCHSC, Metsulfuron 3 g/ha): 75%
- % visual injury, Obs ([2]; CHEAL, Metsulfuron 3 g/ha): 98%
- % visual injury, Obs ([3]; BRSNW, Metsulfuron 3 g/ha): 90%
- % visual injury, Obs ([4]; Metsulfuron 3 g/ha): 85%
- % visual injury, Obs ([5]; AMARE, Metsulfuron 3 g/ha): 100%
- % visual injury, Obs ([6]; MATCH, Metsulfuron 3 g/ha): 96%
- % visual injury, Obs ([7]; SINAR, Metsulfuron 3 g/ha): 88%
- % visual injury, Obs ([8]; CIRAR, Metsulfuron 3 g/ha): 85%

Compound: COc1nc(C)nc(N(C)C(=O)NS(=O)(=O)c2ccccc2C(=O)O)n1 [Tribenuron, tribenuron]
- % visual injury, Obs ([1]; KCHSC, Tribenuron 15 g/ha): 50%
- % visual injury, Obs ([2]; CHEAL, Tribenuron 15 g/ha): 96%
- % visual injury, Obs ([3]; BRSNW, Tribenuron 15 g/ha): 99%
- % visual injury, Obs ([4]; Tribenuron 15 g/ha): 78%
- % visual injury, Obs ([5]; AMARE, Tribenuron 15 g/ha): 100%
- % visual injury, Obs ([6]; MATCH, Tribenuron 15 g/ha): 87%
- % visual injury, Obs ([7]; SINAR, Tribenuron 15 g/ha): 95%
- % visual injury, Obs ([8]; CIRAR, Tribenuron 15 g/ha): 89%

Compound: iodosulfuron
- % visual injury, Obs ([1]; KCHSC, Iodosulfuron 33.75 g/ha): 70%
- % visual injury, Obs ([2]; CHEAL, Iodosulfuron 33.75 g/ha): 90%
- % visual injury, Obs (spring barley (HORVS); HORVS, Iodosulfuron 33.75 g/ha): 0%
- % visual injury, Obs ([3]; BRSNW, Iodosulfuron 33.75 g/ha): 98%
- % visual injury, Obs ([4]; Iodosulfuron 33.75 g/ha): 85%
- % visual injury, Obs ([5]; AMARE, Iodosulfuron 33.75 g/ha): 98%
- % visual injury, Obs ([6]; MATCH, Iodosulfuron 33.75 g/ha): 85%
- % visual injury, Obs ([7]; SINAR, Iodosulfuron 33.75 g/ha): 100%
- % visual injury, Obs ([8]; CIRAR, Iodosulfuron 33.75 g/ha): 85%
- % visual injury, Obs (spring wheat (TRZAS); TRZAS, Iodosulfuron 33.75 g/ha): 0%

Compound: mesosulfuron
- % visual injury, Obs ([1]; KCHSC, Mesosulfuron 9 g/ha): 13%
- % visual injury ([1]; Mesosulfuron 3 g/ha): 0%
- % visual injury, Obs ([2]; CHEAL, Mesosulfuron 9 g/ha): 48%
- % visual injury ([2]; Mesosulfuron 3 g/ha): 30%
- % visual injury, Obs ([3]; BRSNW, Mesosulfuron 9 g/ha): 95%
- % visual injury ([3]; Mesosulfuron 3 g/ha): 100%
- % visual injury ([4]; Mesosulfuron 3 g/ha): 20%
- Obs % visual injury ([4]; Mesosulfuron 3 g/ha): 3%
- % visual injury, Obs ([4]; Mesosulfuron 9 g/ha): 28%
- % visual injury, Obs ([5]; AMARE, Mesosulfuron 9 g/ha): 100%
- % visual injury ([5]; Mesosulfuron 3 g/ha): 78%
- Obs % visual injury ([6]; MATCH, Mesosulfuron 3 g/ha): 10%
- % visual injury, Obs ([6]; MATCH, Mesosulfuron 9 g/ha): 45%
- % visual injury ([6]; Mesosulfuron 3 g/ha): 15%
- % visual injury ([9]; Mesosulfuron 3 g/ha): 15%
- % visual injury ([7]; Mesosulfuron 3 g/ha): 98%
- % visual injury, Obs ([7]; SINAR, Mesosulfuron 9 g/ha): 94%
- % visual injury, Obs ([8]; CIRAR, Mesosulfuron 9 g/ha): 73%
- % visual injury ([8]; Mesosulfuron 3 g/ha): 78%
